{
  "source": "PubChem BioAssay AID1259409",
  "about": "(Chemical Carcinogenesis Research Information System (CCRIS), 2018)",
  "origin": "cited, not measured here",
  "tested_on": "rodent chemically induced tumor inhibition, incidence and multiplicity",
  "assay": "CCRIS tumor inhibitor studies",
  "note": "Several values for one entry are separate records, joined by “and”; a condition that tells them apart may be missing. Equal entries are not always repeated.",
  "data": [
    {"molecule": "O=c1cc[nH]c(=O)[nH]1", "values": [
      {"measurement": "tumour outcome (control, treated, inhibition, significance)", "setting": "Carcinogen: 7,12-DIMETHYLBENZ[A]ANTHRACENE, 57-97-6, Dose [Inhibitor]: 1.5% IN 20% PROTEIN DIET (STUDY DURATION: 100 D), Route [Inhibitor]: ORAL, Species: RAT, Strain/Sex: STRAIN-CB/FEMALE, Target Tissue: Type of Lesion: MAMMARY GLAND: TUMOR, Dose [Carcinogen]: 15 MG IN 1 ML ARACHIS OIL 1/2 WK FOR 3 DOSES STARTING AT 30 D OF AGE, Promoter: NONE USED", "value": "18/18 (100%), 18/21 (86%), 14%, not calculated"},
      {"measurement": "tumour outcome (control, treated, inhibition, significance)", "setting": "Carcinogen: N-METHYL-N-NITROSOUREA, 684-93-5, Dose [Inhibitor]: 0, 3% IN DIET FOR 20 WK BEGINNING POST LAST CARCINOGEN DOSE (STUDY DURATION: 24 WK), Route [Inhibitor]: ORAL, Species: RAT, Strain/Sex: F344/MALE, Target Tissue: Type of Lesion: LUNG: ADENOMA, Dose [Carcinogen]: 20 MG/KG 2/WK FOR 4 WK, Promoter: NONE USED", "value": "3/11 (27%), 0/9 (0%), 100%, not significant"},
      {"measurement": "tumour outcome (control, treated, inhibition, significance)", "setting": "Carcinogen: N-METHYL-N-NITROSOUREA, 684-93-5, Dose [Inhibitor]: 0, 3% IN DIET FOR 20 WK BEGINNING POST LAST CARCINOGEN DOSE (STUDY DURATION: 24 WK), Route [Inhibitor]: ORAL, Species: RAT, Strain/Sex: F344/MALE, Target Tissue: Type of Lesion: THYROID: ADENOMA, CARCINOMA, Dose [Carcinogen]: 20 MG/KG 2/WK FOR 4 WK, Promoter: NONE USED", "value": "6/11 (55%), 1/11 (10%), 82%, p>0.05"}
    ]},
    {"molecule": "CC(C)Cc1ccc(C(C)C(=O)O)cc1", "note": "(centres undefined)", "values": [
      {"measurement": "tumour outcome (control, treated, inhibition, significance)", "setting": "Carcinogen: 4-(METHYLNITROSAMINO)-1-(3-PYRIDYL-1-BUTANONE, 64091-91-4, Dose [Inhibitor]: 0, 263 MG/KG IN DIET FOR 25 WK BEGINNING 2 WK PRIOR TO CARCINOGEN TREATMENT (STUDY DURATION: 25 WK), Route [Inhibitor]: ORAL, Species: MOUSE, Strain/Sex: STRAIN-A/FEMALE, Target Tissue: Type of Lesion: FORESTOMACH: TUMOR, Dose [Carcinogen]: 9.1 MG IN DRINKING WATER FOR 7 WK, Promoter: NONE USED", "value": "7/25 (28%), 0/25 (0%), 100%, p<0.01"},
      {"measurement": "tumour outcome (control, treated, inhibition, significance)", "setting": "Carcinogen: AZOXYMETHANE, 25843-45-2, Dose [Inhibitor]: 0, 400 PPM IN DIET BEGINNING 1 WK PRIOR TO CARCINOGEN TREATMENT FOR DURATION OF STUDY (STUDY DURATION: 54 WK), Route [Inhibitor]: ORAL, Species: RAT, Strain/Sex: F344/MALE, Target Tissue: Type of Lesion: COLON: ADENOCARCINOMA, Dose [Carcinogen]: 15 MG/KG/BW 1/WK FOR 2 WK, Promoter: NONE USED", "value": "58%, 33%, 43%, p<0.05"},
      {"measurement": "tumour outcome (control, treated, inhibition, significance)", "setting": "Carcinogen: AZOXYMETHANE, 25843-45-2, Dose [Inhibitor]: 0, 200 PPM IN DIET BEGINNING 1 WK PRIOR TO CARCINOGEN TREATMENT FOR DURATION OF STUDY (STUDY DURATION: 54 WK), Route [Inhibitor]: ORAL, Species: RAT, Strain/Sex: F344/MALE, Target Tissue: Type of Lesion: COLON: ADENOCARCINOMA, Dose [Carcinogen]: 15 MG/KG/BW 1/WK FOR 2 WK, Promoter: NONE USED", "value": "58%, 41%, 29%, not calculated"},
      {"measurement": "tumour outcome (control, treated, inhibition, significance)", "setting": "Carcinogen: AZOXYMETHANE, 25843-45-2, Dose [Inhibitor]: 0, 200 PPM IN DIET BEGINNING 1 WK PRIOR TO CARCINOGEN TREATMENT FOR DURATION OF STUDY (STUDY DURATION: 54 WK), Route [Inhibitor]: ORAL, Species: RAT, Strain/Sex: F344/MALE, Target Tissue: Type of Lesion: COLON: ADENOMA, Dose [Carcinogen]: 15 MG/KG/BW 1/WK FOR 2 WK, Promoter: NONE USED", "value": "6%, 6%, 0%, not calculated"},
      {"measurement": "outcome", "setting": "Carcinogen: AZOXYMETHANE, 25843-45-2, Dose [Inhibitor]: 0, 400 PPM IN DIET BEGINNING 1 WK PRIOR TO CARCINOGEN TREATMENT FOR DURATION OF STUDY (STUDY DURATION: 54 WK), Route [Inhibitor]: ORAL, Species: RAT, Strain/Sex: F344/MALE, Target Tissue: Type of Lesion: COLON: ADENOMA, Dose [Carcinogen]: 15 MG/KG/BW 1/WK FOR 2 WK, Promoter: NONE USED", "value": "6%, 0,%, 100%, not calculated"}
    ]},
    {"molecule": "CC(=O)Oc1ccccc1C(=O)Oc1ccccc1C(=O)O", "values": [
      {"measurement": "tumour outcome (control, treated, inhibition, significance)", "setting": "Carcinogen: NONE USED, Dose [Inhibitor]: 0, 0.1% IN CHOLINE-DEFICIENT DIET FOR 30 WK (STUDY DURATION: 30 WK), Route [Inhibitor]: ORAL, Species: RAT, Strain/Sex: F344/MALE, Target Tissue: Type of Lesion: LIVER: NEOPLASTIC NODULE, Promoter: NONE USED", "value": "8/8 (100%), 10/10 (100%), 0%, not significant and 4/4 (100%), 3/3 (100%), 0%, not significant"},
      {"measurement": "tumour outcome (control, treated, inhibition, significance)", "setting": "Carcinogen: NONE USED, Dose [Inhibitor]: 0, 0.2% IN CHOLINE-DEFICIENT DIET FOR 30 WK (STUDY DURATION: 30 WK), Route [Inhibitor]: ORAL, Species: RAT, Strain/Sex: F344/MALE, Target Tissue: Type of Lesion: LIVER: NEOPLASTIC NODULE, Promoter: NONE USED", "value": "8/8 (100%), 4/11 (36%), 64%, p<0.05 and 4/4 (100%), 3/3 (100%), 0%, not significant"},
      {"measurement": "tumour outcome (control, treated, inhibition, significance)", "setting": "Carcinogen: NONE USED, Dose [Inhibitor]: 0, 0.4% IN CHOLINE-DEFICIENT DIET FOR 30 WK (STUDY DURATION: 30 WK), Route [Inhibitor]: ORAL, Species: RAT, Strain/Sex: F344/MALE, Target Tissue: Type of Lesion: LIVER: NEOPLASTIC NODULE, Promoter: NONE USED", "value": "4/4 (100%), 0/4 (0%), 100%, p<0.05"},
      {"measurement": "tumour outcome (control, treated, inhibition, significance)", "setting": "Carcinogen: NONE USED, Dose [Inhibitor]: 0, 0.8% IN CHOLINE-DEFICIENT DIET FOR 30 WK (STUDY DURATION: 30 WK), Route [Inhibitor]: ORAL, Species: RAT, Strain/Sex: F344/MALE, Target Tissue: Type of Lesion: LIVER: NEOPLASTIC NODULE, Promoter: NONE USED", "value": "4/4 (100%), 0/3 (0%), 100%, p<0.05"}
    ]},
    {"molecule": "CCCCC/C=C\\C/C=C\\CCCCCCCC(=O)O", "values": [
      {"measurement": "tumour outcome (control, treated, inhibition, significance)", "setting": "Carcinogen: BENZO[A]PYRENE, 50-32-8, Dose [Inhibitor]: 0, 0.1 ML IN 0.1 ML OLIVE OIL 4 AND 2 D PRIOR TO CARCINOGEN DOSE (CYCLE REPEATED 4 X) (STUDY DURATION: 23 WK), Route [Inhibitor]: GAVAGE, Species: MOUSE, Strain/Sex: ICR/FEMALE, Target Tissue: Type of Lesion: STOMACH: PAPILLOMA, Dose [Carcinogen]: 2 MG IN 0.2 ML OLIVE OIL 1/WK FOR 4 WK", "value": "100%, 90%, 10%, not calculated"}
    ]},
    {"molecule": "Brc1cc2c(cc1Br)Oc1cc(Br)c(Br)cc1O2", "values": [
      {"measurement": "tumour outcome (control, treated, inhibition, significance)", "setting": "Carcinogen: 7,12-DIMETHYLBENZ[A]ANTHRACENE, 57-97-6, Dose [Inhibitor]: 0, 17 NMOL 2/WK APPLIED 1 HR PRIOR TO EACH PROMOTER DOSE FOR 10 WK (STUDY DURATION: 11 WK), Route [Inhibitor]: DERMAL, Species: MOUSE, Target Tissue: Type of Lesion: SKIN: TUMOR, Dose [Carcinogen]: 390 NMOL ONCE, Promoter: 12-O-TETRADECANOYLPHORBOL-13-ACETATE, 16561-29-8", "value": "100%, 0%, 100%, not calculated"}
    ]}
  ]
}
